Test results taken from PubChem BioAssay AID2060503 (Molecular Pharmacology Branch, DTP, NCI, 2025).
pIC50: −log10 of the molar value.

Test system: 817829-284-R-J1-PDC complex spheroids, viability
Test: Anticancer human tumor 817829-284-R-J1-PDC patient-derived colon adenocarcinoma cell line growth inhibition [GQUAD]
Settings: for pIC50: curve of first compound; for viability, T/C: stronger effect = lower value
From the text: DNA G-quadruplex Stabilizer Agents in Combinations in Complex Spheroids
A high-throughput screen of multi-cell type tumor spheroids was designed to identify active combinations of DNA G-quadruplex stabilizer agents and targeted small molecules. Complex spheroids include a stromal component modeled by human endothelial cells (HUVEC) and fibroblasts modeled by human mesenchymal stem cells (MSCs). The concentration ranges selected for each drug and investigational agent were based upon clinically achievable concentrations if the clinical Cmax of the agent was known.
Compounds. The drugs and investigational agents: pidnarulex (CX-5461; NSC782164), APTO-253 (NSC789042), BRACO-19 (NSC847499), peposertib (NSC802822), ceralasertib (NSC780249), elimusertib (NSC800525), camonsertib (NSC841442), AZD-1390 (NSC803789), olaparib (NSC753686), talazoparib (NSC767125), ART-558 (NSC835418), sotorasib (NSC818433), MRTX-1133 (NSC836407), SN-38 (NSC673596), topotecan (NSC609699), etoposide (NSC141540), doxorubicin (NSC123127), gemcitabine (NSC613327), 5-fluorouracil (NSC19893), paclitaxel (NSC125973), vemurafenib (NSC761431), panobinostat (NSC761190), R-306465 (JNJ-16241199; NSC773264), adavosertib (NSC754352), TP-3654 (NSC805149), carboplatin (NSC241240), KSQ-4279 (NSC840948), and staurosporine (NSC755774) were obtained from the National Cancer Institute (NCI) Developmental Therapeutics Program Chemical Repository (34). The FDA-approved anticancer drug set is available from the NCI Developmental Therapeutics Program. […] The stock solutions were prepared in dimethyl sulfoxide (DMSO, Sigma-Aldrich, St. Louis, MO, cat. D2650) at 800-fold the tested concentration and stored at -70 degrees C prior to their use. All drugs and investigational agents were tested over a range starting from a high concentration at or near the clinical Cmax and decreasing in half-log increments. If the clinical Cmax for an agent had not been determined, the highest concentration tested was 10 microM.
2.3 Cell Culture. All cells were maintained in an incubator at 37 degrees C and 5% CO2 with 95% humidity. The PDC lines were cultured according to standard operating procedures established by the NCI PDMR. All PDCs were thawed and cultured in Matrigel-coated flasks prepared with a working solution of 1X Ham's F-12 nutrient mix, without supplementation (Invitrogen, cat. 11765054), 100 U/mL penicillin-streptomycin (Invitrogen, cat. 15140122), and 2.5% Matrigel (Corning Inc., cat. 354248) for the first three passages. The 857933-349-R-J2-PDC line was cultured in 6C/Colon 1B media, which includes advanced DMEM/F-12 (Thermo Fisher Scientific, cat. 12634028), 10 mM HEPES (Thermo Fisher Scientific, cat. 15630080), 1X GlutaMAX supplement (Thermo Fisher Scientific, cat. 35050061), 0.1 mg/mL primocin (InvivoGen, cat. ant-pm-2), 10% defined fetal bovine serum, heat inactivated (HyClone Laboratories Inc., cat. SH30070.03HI), 50% L-WRN conditioned media (ATCC, cat. CRL-3276), 1.25 mM N-Acetyl-L-cysteine (Sigma-Aldrich, cat. A9165), 10 mM nicotinamide (Sigma-Aldrich, cat. N0636), 1X B-27 supplement (Thermo Fisher Scientific, cat. 17504044), 1X N-2 supplement (Thermo Fisher Scientific, cat. 17502048), 10 microM Y-27632 dihydrochloride (Tocris Bioscience, cat. 1254), and 50 ng/mL human EGF recombinant protein (Thermo Fisher Scientific, cat. PHG0311). The 485176-168-R4-J1-PDC line was cultured in Panc media, which includes all 6C/Colon 1B media components plus 100 ng/mL human FGF-10 (Thermo Fisher Scientific, cat. 100-26), 500 nM SB-431542 (Selleckchem, cat. S1067), and gastrin (Tocris, cat. 3006).
[…]

[1] = second compound 0.0316 µM, first compound 0.0316 µM
[2] = second compound 0.0316 µM, first compound 0.1 µM
[3] = second compound 0.0316 µM, first compound 0.316 µM
[4] = second compound 0.0316 µM, first compound 1 µM
[5] = second compound 0.0316 µM, first compound 3.16 µM
[6] = second compound 0.0316 µM, first compound 10 µM
[7] = second compound 0.1 µM, first compound 0.0316 µM
[8] = second compound 0.1 µM, first compound 0.1 µM
[9] = second compound 0.1 µM, first compound 0.316 µM
[10] = second compound 0.1 µM, first compound 1 µM
[11] = second compound 0.1 µM, first compound 3.16 µM
[12] = second compound 0.1 µM, first compound 10 µM
[13] = second compound 0.316 µM, first compound 0.0316 µM
[14] = second compound 0.316 µM, first compound 0.1 µM
[15] = second compound 0.316 µM, first compound 0.316 µM
[16] = second compound 0.316 µM, first compound 1 µM
[17] = second compound 0.316 µM, first compound 3.16 µM
[18] = second compound 0.316 µM, first compound 10 µM
[19] = second compound 1 µM, first compound 0.0316 µM
[20] = second compound 1 µM, first compound 0.1 µM
[21] = second compound 1 µM, first compound 0.316 µM
[22] = second compound 1 µM, first compound 1 µM
[23] = second compound 1 µM, first compound 3.16 µM
[24] = second compound 1 µM, first compound 10 µM
[25] = second compound 3.16 µM, first compound 0.0316 µM
[26] = second compound 3.16 µM, first compound 0.1 µM
[27] = second compound 3.16 µM, first compound 0.316 µM
[28] = second compound 3.16 µM, first compound 1 µM
[29] = second compound 3.16 µM, first compound 3.16 µM
[30] = second compound 3.16 µM, first compound 10 µM
[31] = second compound 10 µM, first compound 0.0316 µM
[32] = second compound 10 µM, first compound 0.1 µM
[33] = second compound 10 µM, first compound 0.316 µM
[34] = second compound 10 µM, first compound 1 µM
[35] = second compound 10 µM, first compound 3.16 µM
[36] = second compound 10 µM, first compound 10 µM
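Note: spheroids exposed to agents for 7 days before readout.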
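Throughout, for viability, T/C: percent viability relative to DMSO vehicle control taken as 100%.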

Structure (SMILES): CC1COCCN1c1cc(-c2ccnn2C)c2ccnc(-c3ccn[nH]3)c2n1 (centres undefined) + Cc1cnc(CNC(=O)c2c(=O)c3ccc(N4CCCN(C)CC4)nc3n3c2sc2ccccc23)cn1
- pIC50 (second compound 0.0316 µM): > 7.50
- pIC50 (second compound 0.1 µM): > 7.50
- pIC50 (second compound 0.316 µM): > 7.50
- pIC50 (second compound 1 µM): > 7.50
- pIC50 (second compound 3.16 µM): > 7.50
- pIC50 (second compound 10 µM): > 7.50
- viability, T/C [1]: 14.8%
- viability, T/C [2]: 9.78%
- viability, T/C [3]: 9.09%
- viability, T/C [4]: 7.06%
- viability, T/C [5]: 6.16%
- viability, T/C [6]: 4.96%
- viability, T/C [7]: 13.3%
- viability, T/C [8]: 11.1%
- viability, T/C [9]: 8.18%
- viability, T/C [10]: 6.54%
- viability, T/C [11]: 6.01%
- viability, T/C [12]: 3.97%
- viability, T/C [13]: 15%
- viability, T/C [14]: 11.9%
- viability, T/C [15]: 8.36%
- viability, T/C [16]: 6.17%
- viability, T/C [17]: 5.71%
- viability, T/C [18]: 4.08%
- viability, T/C [19]: 13.8%
- viability, T/C [20]: 14.1%
- viability, T/C [21]: 9.19%
- viability, T/C [22]: 6.22%
- viability, T/C [23]: 5.53%
- viability, T/C [24]: 3.34%
- viability, T/C [25]: 11.8%
- viability, T/C [26]: 12.1%
- viability, T/C [27]: 8.66%
- viability, T/C [28]: 6.72%
- viability, T/C [29]: 3.24%
- viability, T/C [30]: 2.62%
- viability, T/C [31]: 0.06%
- viability, T/C [32]: 0.09%
- viability, T/C [33]: 0.11%
- viability, T/C [34]: 0.08%
- viability, T/C [35]: 0.12%
- viability, T/C [36]: 0.12%

Structure (SMILES): CC1COCCN1c1cc(C2(O)CC3CCC(C2)O3)c2cnn(-c3ccn[nH]3)c2n1 (centres undefined) + Cc1cnc(CNC(=O)c2c(=O)c3ccc(N4CCCN(C)CC4)nc3n3c2sc2ccccc23)cn1
- pIC50 (second compound 0.0316 µM): > 7.50
- pIC50 (second compound 0.1 µM): > 7.50
- pIC50 (second compound 0.316 µM): > 7.50
- pIC50 (second compound 1 µM): > 7.50
- pIC50 (second compound 3.16 µM): > 7.50
- pIC50 (second compound 10 µM): > 7.50
- viability, T/C [1]: 12.8%
- viability, T/C [2]: 9.62%
- viability, T/C [3]: 7.9%
- viability, T/C [4]: 5.56%
- viability, T/C [5]: 5.19%
- viability, T/C [6]: 3.22%
- viability, T/C [7]: 12.9%
- viability, T/C [8]: 10.7%
- viability, T/C [9]: 8.05%
- viability, T/C [10]: 5.97%
- viability, T/C [11]: 4.94%
- viability, T/C [12]: 2.88%
- viability, T/C [13]: 13.1%
- viability, T/C [14]: 9.42%
- viability, T/C [15]: 6.75%
- viability, T/C [16]: 6.83%
- viability, T/C [17]: 4.09%
- viability, T/C [18]: 2.08%
- viability, T/C [19]: 12.2%
- viability, T/C [20]: 11.2%
- viability, T/C [21]: 6.62%
- viability, T/C [22]: 5.07%
- viability, T/C [23]: 3.93%
- viability, T/C [24]: 1.59%
- viability, T/C [25]: 12.6%
- viability, T/C [26]: 9.23%
- viability, T/C [27]: 6.99%
- viability, T/C [28]: 3.25%
- viability, T/C [29]: 0.81%
- viability, T/C [30]: 0.2%
- viability, T/C [31]: 0.05%
- viability, T/C [32]: 0.1%
- viability, T/C [33]: 0.14%
- viability, T/C [34]: 0.08%
- viability, T/C [35]: 0.14%
- viability, T/C [36]: 0.12%
